Patent US10035806B2, “Derivatized corroles and metallocorroles and their use as imaging and therapeutic agents” (CALIFORNIA INSTITUTE OF TECHNOLOGY, priority 2015, dated 2018)

Tests used:
Assay in all cases: NCI60 anticancer drug screen
Type in all cases: cell-based, human
[1] = system: NCI-H522; details: NCI-H522 (Non-small-cell lung cancer), 10 μM, 48 h
Text: (§1) The aminocaproate-substituted corrole Complex 3 was submitted to NCI for cytotoxic screening at a single high dose (10−5M) in a panel of 60 human tumor cell lines (NCI60). Details of the cytotoxicity assessment in the NCI anticancer drug screen have been described previously, in Monks A, et al. (1991) Feasibility of a high-flux anticancer drug screen using a diverse panel of cultured human tumor cell lines. J Natl Cancer Inst 83(11):757-766, this reference being incorporated by reference for these teachings.
(§2) In view of the promising results observed for carboxylated corroles, Complex 3 was selected for expanded cell screening to uncover additional susceptible cancer cell lines. The cytotoxic activity of Complex 3 was tested at a dose of 10^−5 M against 60 human cancer cell lines representing nine distinct tumor types in the anticancer screening program of the National Cancer Institute (NCI). The in vitro parameters for cytotoxicity, growth percent, and lethality were obtained for Complex 3 and reported as a mean graph of the percent growth of treated cells (FIG. 7). Bars in the mean graph depict the deviation of individual tumor cell lines from the overall mean value for all cells tested. Bars that project to the right of the mean represent cell lines that are more sensitive to Complex 3, whereas cell lines less sensitive to the compound display bars that project to the left.
(§3) The numerical values associated with this assay represent growth relative to the no-drug control and the numbers of cells at time 0 (FIG. 7). This allows detection of both growth inhibition (values between 0 and 100) and lethality (values less than 0). For example, a value of 100 signifies no growth inhibition, 40 means 60% growth inhibition, 0 means no net growth over the course of the experiment, −40 means 40% lethality, and −100 indicates all cells are dead. […] Growth inhibitions reflect cytostatic activity of the compound as previously shown for Complex 2. In contrast, cell lethality is only evident in melanoma cells, specifically the LOX IMVI and SK-MEL-28 cell lines.

[2] = system: UACC-62; details: UACC-62 (Melanoma), 10 μM, 48 h
Text: as §1, §2, §3

[3] = system: ACHN; details: ACHN (Renal Cancer), 10 μM, 48 h
Text: as §1, §2, §3

[4] = system: HOP-62; details: HOP-62 (Non-small-cell lung cancer), 10 μM, 48 h
Text: as §1, §2, §3

[5] = system: OVCAR-4; details: OVCAR-4 (Ovarian Cancer), 10 μM, 48 h
Text: as §1, §2, §3

[6] = system: NCI-H23; details: NCI-H23 (Non-small-cell lung cancer), 10 μM, 48 h
Text: as §1, §2, §3

[7] = system: MALME-3M; details: MALME-3M (Melanoma), 10 μM, 48 h
Text: as §1, §2, §3

[8] = system: HT29; details: HT29 (Colon cancer), 10 μM, 48 h
Text: as §1, §2, §3

[9] = system: SF-539; details: SF-539 (CNS Cancer), 10 μM, 48 h
Text: as §1, §2, §3

[10] = system: EKVX; details: EKVX (Non-small-cell lung cancer), 10 μM, 48 h
Text: as §1, §2, §3

[11] = system: HL-60 (TB); details: HL-60 (TB) (Leukemia), 10 μM, 48 h
Text: as §1, §2, §3

[12] = system: OVCAR-3; details: OVCAR-3 (Ovarian Cancer), 10 μM, 48 h
Text: as §1, §2, §3

[13] = system: A549/ATCC; details: A549/ATCC (Non-small-cell lung cancer), 10 μM, 48 h
Text: as §1, §2, §3

[14] = system: NCl/ADR-RES; details: NCl/ADR-RES (Ovarian Cancer), 10 μM, 48 h
Text: as §1, §2, §3

[15] = system: HPO-92; details: HPO-92 (Non-small-cell lung cancer), 10 μM, 48 h
Text: as §1, §2, §3

[16] = system: HCT-116; details: HCT-116 (Colon cancer), 10 μM, 48 h
Text: as §1, §2, §3

[17] = system: RXF 398; details: RXF 398 (Renal Cancer), 10 μM, 48 h
Text: as §1, §2, §3

[18] = system: IGROV1; details: IGROV1 (Ovarian Cancer), 10 μM, 48 h
Text: as §1, §2, §3

[19] = system: MOLT-4; details: MOLT-4 (Leukemia), 10 μM, 48 h
Text: as §1, §2, §3

[20] = system: NCI-H226; details: NCI-H226 (Non-small-cell lung cancer), 10 μM, 48 h
Text: as §1, §2, §3

[21] = system: SF-268; details: SF-268 (CNS Cancer), 10 μM, 48 h
Text: as §1, §2, §3

[22] = system: SW-620; details: SW-620 (Colon cancer), 10 μM, 48 h
Text: as §1, §2, §3

[23] = system: A498; details: A498 (Renal Cancer), 10 μM, 48 h
Text: as §1, §2, §3

[24] = system: MCF7; details: MCF7 (Breast Cancer), 10 μM, 48 h
Text: as §1, §2, §3

[25] = system: HCT-15; details: HCT-15 (Colon cancer), 10 μM, 48 h
Text: as §1, §2, §3

[26] = system: OVCAR-5; details: OVCAR-5 (Ovarian Cancer), 10 μM, 48 h
Text: as §1, §2, §3

[27] = system: HS 578T; details: HS 578T (Breast Cancer), 10 μM, 48 h
Text: as §1, §2, §3

[28] = system: COLO 205; details: COLO 205 (Colon cancer), 10 μM, 48 h
Text: as §1, §2, §3

O=C(O)CCCCCNc1c(F)c(F)c(C2=C3C=CC4=[N+]3[Ga-]35[n]6c2ccc6C(c2c(F)c(F)c(F)c(F)c2F)=c2ccc([n]23)=C(c2c(F)c(F)c(F)c(F)c2F)c2ccc4[n]25)c(F)c1F (stereo not shown) [Complex 3]
Growth inhibition, % [1]: 44.6%
Growth inhibition, % [2]: 91.6%
Growth inhibition, % [3]: 73.2%
Growth inhibition, % [4]: 44.9%
Growth inhibition, % [5]: 59.9%
Growth inhibition, % [6]: 64.5%
Growth inhibition, % [7]: 50.4%
Growth inhibition, % [8]: 60.6%
Growth inhibition, % [9]: 85.3%
Growth inhibition, % [10]: 59.7%
Growth inhibition, % [11]: 86.1%
Growth inhibition, % [12]: 75.9%
Growth inhibition, % [13]: 82.7%
Growth inhibition, % [14]: 52.7%
Growth inhibition, % [15]: 81.6%
Growth inhibition, % [16]: 75.5%
Growth inhibition, % [17]: 96.7%
Growth inhibition, % [18]: 55.7%
Growth inhibition, % [19]: 86.0%
Growth inhibition, % [20]: 61.1%
Growth inhibition, % [21]: 65.8%
Growth inhibition, % [22]: 75.9%
Growth inhibition, % [23]: 99.0%
Growth inhibition, % [24]: 63.1%
Growth inhibition, % [25]: 57.0%
Growth inhibition, % [26]: 53.1%
Growth inhibition, % [27]: 81.2%
Growth inhibition, % [28]: 51.7%
